Assay results published in PubChem BioAssay AID1959 (Broad Institute, 2009).
Active and inactive are the calls of the source.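 The calls were made as follows: active = growth-inhibition EC50 no more than tenfold above the top tested dose; inconclusive = flat fit between 30% and 70% inhibition, or unreliable fit; inactive = EC50 more than tenfold above the top tested dose.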

System: E. coli NEB5alpha growth, BacTiter-Glo luminescence, 4 h
Test: antibacterial activity against E. coli NEB5alpha – luminescence, counter-screen for MEX-5/POS-1 RNA-binding inhibitor project, dose response (AID 1959);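 also: pUC19-transformed ampicillin-resistant cells grown in LB with ampicillin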

Cc1cc(O)c(C(C)C)cc1N=C1CSC(=O)N1
EC50: > 11 µM (inactive)

CCOC(=O)N1CCN(c2nc3ccccc3nc2C(C#N)S(=O)(=O)c2ccc(C)cc2)CC1 (configuration not stated)
EC50: > 11 µM (inactive)

O=c1[nH]c2ccccc2nc1/C=C/c1ccc(F)cc1
EC50: > 11 µM (inactive)

CCCCc1ccc(NC(=O)CSC2=NN3CCCC(=O)N=C3S2)cc1
EC50: > 11 µM (inactive)

CCc1ccccc1N1C(=O)/C(=C/c2ccc(N3CCN(C)CC3)o2)C(=O)NC1=S
EC50: > 11 µM (inactive)

COc1ccc(OC)c(-n2c(O)c(/C=C3\C=Nc4ccccc43)c(=O)[nH]c2=O)c1
EC50: > 11 µM (inactive)

Cc1ccc(NC(=O)CSc2nnc(N)s2)cc1S(=O)(=O)N1CCOCC1
EC50: > 11 µM (inactive)

Cc1cccc2cc3c(N)c(C(=O)Nc4ccc(N5CCOCC5)cc4)sc3nc12
EC50: > 11 µM (inactive)

C=CCn1c(Cc2nc3ccccc3[nH]2)n[nH]c1=S
EC50: > 11 µM (inactive)

O=C(O)c1ccccc1-n1c(-c2ccccc2)cc2c1CCCC2=O
EC50: > 11 µM (inactive)

Cc1ccc(N=Nc2c(O)ccc3n[nH]nc23)cc1
EC50: > 11 µM (inactive)

Cc1cc(=O)[nH]c(N/N=C/c2ccc(O)c(O)c2)n1
EC50: > 11 µM (inactive)

Cc1nc(S/C(=C/c2ccc(-c3ccc(C(=O)O)cc3)o2)C(=O)O)n[nH]1
EC50: > 11 µM (inactive)

Nc1ccc2nc(CCCO)[nH]c2c1
EC50: > 11 µM (inactive)

O=C(NNc1ccccn1)C(=O)NNS(=O)(=O)c1ccc(F)cc1
EC50: > 11 µM (inactive)

Cc1ccc(S(=O)(=O)NNC(=S)NC(=O)c2ccc([N+](=O)[O-])cc2)cc1
EC50: > 11 µM (inactive)

CC(C)(C)c1ccc(OCc2ccc(C(=O)Nc3cccnc3)o2)cc1
EC50: > 11 µM (inactive)

CCCSc1nnc(NC(=O)Nc2ccccc2)s1
EC50: > 11 µM (inactive)

CC1(OC(=O)c2ccco2)C(=O)C=C2C=C(c3ccc(C#N)cc3)OC=C2C1=O (configuration not stated)
EC50: > 11 µM (inactive)

O=C(/C=C/c1ccc(OCCCF)cc1)Nc1ccnc(-c2cccnc2)n1
EC50: > 11 µM (inactive)

O=C(NCC1CCCO1)c1nn2c(C(F)(F)F)cc(-c3cc(Br)cs3)nc2c1Br (configuration not stated)
EC50: > 11 µM (inactive)

COc1ccccc1NC(=S)NNC(=O)c1cc(C)n(C)n1
EC50: > 11 µM (inactive)

COc1ccc(NC(=O)CCl)cn1
EC50: > 11 µM (inactive)

CCCc1c(O)nc(SCC(=O)N2CCCCC2)[nH]c1=O
EC50: > 11 µM (inactive)

Cc1ccc(NC(=O)Cn2c(=O)c(C)nc3ccccc32)cc1
EC50: > 11 µM (inactive)

COc1ccc(N=Cc2c(O)n(-c3cccc(C)n3)c(=O)c3ccccc23)cc1
EC50: > 11 µM (inactive)

COc1ccc(C2C(C#N)=C(N)OC3=C2C(=O)CC(C)(C)C3)cc1Cn1nc(C)c([N+](=O)[O-])c1C (configuration not stated)
EC50: > 11 µM (inactive)

COc1cc(C2C(C#N)=C(N)OC3=C2C(=O)CCC3)c([N+](=O)[O-])cc1OC (configuration not stated)
EC50: > 11 µM (inactive)

CCCCn1c(=O)[nH]c(=O)c2c1nc(-c1ccc(-c3ccccc3Br)o1)n2CCOC
EC50: > 11 µM (inactive)

CCCCC1=CC2=CC(=O)C(C)(OC(=O)c3ccc(Cl)nc3)C(=O)C2=CO1 (configuration not stated)
EC50: > 11 µM (inactive)

O=c1[nH]c(/C=C\c2ccc(O)c(O)c2)nc(O)c1[N+](=O)[O-]
EC50: > 11 µM (inactive)

COc1cc2[nH]c(C(=O)NN)c(N)c2cc1OC
EC50: > 11 µM (inactive)

Cn1c(=O)cc2c3c(c(N4CCCCC4)ccc31)C(=O)c1ccccc1-2
EC50: > 11 µM (inactive)

COc1ccc2nc3cc(Cl)ccc3c(Nc3cc(CN4CCCC4)c(O)c(CN4CCCC4)c3)c2n1
EC50: > 11 µM (inactive)

COc1cccc(CN2C(=O)C3(C(C#N)=C(N)OC4=C3C(=O)CCC4)c3ccccc32)c1 (configuration not stated)
EC50: > 11 µM (inactive)

CC1(C)CC(=O)C2=C(C1)OC(N)=C(C#N)[C@@]21C(=O)N(CC(N)=O)c2ccccc21
EC50: > 11 µM (inactive)

NS(=O)(=O)c1ccc(-c2cccc(/C=C3\SC(=O)NC3=O)c2)cc1
EC50: > 11 µM (inactive)

COc1ccc(OC)c(S(=O)(=O)Nc2ccc(O)c(Sc3ncn[nH]3)c2)c1
EC50: > 11 µM (inactive)

C(#Cc1ccc2c(c1)COc1c3ccccc3nn1-2)c1ccccc1
EC50: > 11 µM (inactive)

CC(=O)C1=C(c2cccc([N+](=O)[O-])c2)N(C(C)=O)n2c(C)nnc2S1
EC50: > 11 µM (inactive)

N/C(=N\N=C/c1ccc(-c2ccc(O)c(C(=O)O)c2)o1)N[N+](=O)[O-]
EC50: > 11 µM (inactive)

Oc1ccc(/C=N/NC(=S)Nc2cccnc2)c(O)c1O
EC50: > 11 µM (inactive)

CCN(C(=O)c1cc(Cl)ccc1OC)C1CCCCC1
EC50: > 11 µM (inactive)

O=C(N/N=C/c1cc(Cl)cc([N+](=O)[O-])c1O)c1ccccc1NS(=O)(=O)c1cccs1
EC50: > 11 µM (inactive)

CCCCC1=CC2=C(c3ccco3)C(=O)C(C)(OC(=O)c3ccc(OC)cc3)C(=O)C2=CN1CCN1CCOCC1 (configuration not stated)
EC50: > 11 µM (inactive)

Cn1c(C(=O)NCCCN2CCOCC2)cc2c(=O)n(C)c3ccccc3c21
EC50: > 11 µM (inactive)

Nc1nc(Sc2ccc([N+](=O)[O-])cc2[N+](=O)[O-])n[nH]1
EC50: > 11 µM (inactive)

CCCCC1=CC2=CC(=O)C(C)(OC(=O)c3cnc4ccccc4n3)C(=O)C2=CO1 (configuration not stated)
EC50: > 11 µM (inactive)

Cc1c(Cl)cccc1N1C(=O)NC(=O)/C(=C\c2cc(C)n(-c3cccc(C(=O)O)c3C)c2C)C1=O
EC50: > 11 µM (inactive)

O=C(c1coc(=O)c(Br)c1)N1CCCc2ccccc21
EC50: > 11 µM (inactive)

O=C(O)c1cc(O)c2c(c1)C(=O)c1cccc(O)c1C2=O
EC50: > 11 µM (inactive)

O=C(N/N=C/c1cc(Cl)cc([N+](=O)[O-])c1O)C(O)(c1ccccc1)c1ccccc1
EC50: > 11 µM (inactive)

Cc1ccc2[nH]c3c(c2c1)CN(C(=O)CN1CCN(C(=O)c2ccco2)CC1)CC3
EC50: > 11 µM (inactive)

COc1ccc(CCn2c(=N)c(C(=O)NC3CCCCC3)cc3c(=O)n4ccccc4nc32)cc1
EC50: > 11 µM (inactive)

COc1ccc2nc3ccccc3nc2c1NC(=O)c1ccccc1Cl
EC50: > 11 µM (inactive)

CCOC(=O)c1nn(-c2ccc(C)cc2)c2nc(Nc3ccccc3)cc(=O)n12
EC50: > 11 µM (inactive)

Cc1cccc(C(=O)NCCCNC(=O)c2cccc(C)c2)c1
EC50: > 11 µM (inactive)

CC1(OC(=O)c2ccc(Cl)nc2)C(=O)C=C2C=C(c3ccsc3)OC=C2C1=O (configuration not stated)
EC50: > 11 µM (inactive)

N#CC1=C(N)OC2=C(C(=O)CCC2)[C@]12C(=O)N(CC(N)=O)c1ccccc12
EC50: > 11 µM (inactive)

CC1=CC(=C2N=C(c3ccccc3)OC2=O)C=C(C)O1
EC50: > 11 µM (inactive)

COc1ccc(NC(=O)c2sc3nc(-c4cccnc4)ccc3c2N)cc1OC
EC50: > 11 µM (inactive)

CCCn1c(N)c(N(CCOC)C(=O)Cc2ccc(S(=O)(=O)N3CCOCC3)s2)c(=O)[nH]c1=O
EC50: > 11 µM (inactive)

NC(=O)CC(NC(=O)Cc1ccc(Cl)cc1)c1ccc(NC2CCCCCC2)c([N+](=O)[O-])c1 (configuration not stated)
EC50: > 11 µM (inactive)

CCn1c(/C=C/c2ccc([N+](=O)[O-])o2)nc2ccccc2c1=O
EC50: > 11 µM (inactive)

COc1ccc(C2C(C#N)=C(N)OC3=C2C(=O)CC(C)(C)C3)cc1OC (configuration not stated)
EC50: > 11 µM (inactive)

Cc1cc(NC(=O)/C(C#N)=C/c2ccc(-c3ccc(SC(F)F)cc3)o2)n(-c2ccccc2)n1
EC50: > 11 µM (inactive)

CCOc1cc(/C=C/c2cccc[n+]2C)ccc1OCC(=O)Nc1ccc(C)cc1
EC50: > 11 µM (inactive)

COC(=O)c1cc(C(=O)OC)cc(-n2c(C)cc(C(=O)COC(=O)CNS(=O)(=O)c3ccc(C)cc3)c2C)c1
EC50: > 11 µM (inactive)

Cc1ccc2sc(NNC(=O)c3cc(=O)c4ccccc4o3)nc2c1C
EC50: > 11 µM (inactive)

CCc1ccccc1N1C(=O)NC(=O)/C(=C\c2cc(C)n(C)c2C)C1=O
EC50: > 11 µM (inactive)

O=S(=O)(NNC(=S)Nc1ccc(S(=O)(=O)Nc2ncccn2)cc1)c1ccc(Br)cc1
EC50: > 11 µM (inactive)

CCn1c(C)cc(/C=C2\C(=O)NC(=O)N(c3ccccc3C)C2=O)c1C
EC50: > 11 µM (inactive)

COc1ccc(/C(C)=N/Nc2nc3ccccc3nc2C)cc1OC
EC50: > 11 µM (inactive)

CCCn1c(O)c(CN2CCCC(C)C2)c(C)c(C#N)c1=O (configuration not stated)
EC50: > 11 µM (inactive)

COc1ccc(N2C(=O)NC(=O)/C(=C\c3cn(C)c4ccccc34)C2=O)cc1
EC50: > 11 µM (inactive)

O=C(N/N=C/c1ccc(-c2cccc([N+](=O)[O-])c2)o1)c1ccc([N+](=O)[O-])cc1
EC50: > 11 µM (inactive)

Nc1ccc(Nc2ccccc2)c(S(=O)(=O)O)c1
EC50: > 11 µM (inactive)

COc1ccc(C(=O)Nc2nnc(CC(=O)N/N=C/c3ccc(O)cc3O)s2)cc1
EC50: > 11 µM (inactive)

CN(C)c1ccc(-c2nnc(-c3ccc(S(=O)(=O)C(F)F)cc3)o2)cc1
EC50: > 11 µM (inactive)

Cc1ccc(Nc2ccc([N+](=O)[O-])ccc2=O)cc1
EC50: > 11 µM (inactive)

O=C(O)C1Nc2c(O)cc(Cl)c([N+](=O)[O-])c2C2C=CCC12 (configuration not stated)
EC50: > 11 µM (inactive)

Cc1cc2oc(=O)c(CC(=O)NCCCO)c(C)c2c2occ(C(C)(C)C)c12
EC50: > 11 µM (inactive)

O=C(NCCCN1CCOCC1)C1Nc2ccc(OC(F)(F)F)cc2C2C=CCC12 (configuration not stated)
EC50: > 11 µM (inactive)

CC1=NOC(=O)/C1=C\c1ccc2c(c1)OCO2
EC50: > 11 µM (inactive)

CCCCN(C(=O)c1ccc([N+](=O)[O-])o1)c1c(N)n(CC(C)C)c(=O)[nH]c1=O
EC50: > 11 µM (inactive)

O=C(c1ccco1)N1CCN(c2ncnc3c(-c4ccc(Cl)cc4)nsc23)CC1
EC50: > 11 µM (inactive)

COCC1CCN(C(=O)CC2C(=O)NCCN2Cc2cccc(Oc3ccccc3)c2)CC1 (configuration not stated)
EC50: > 11 µM (inactive)

CCc1cc(=O)oc2cc(C)cc(OC(C)C(=O)O)c12 (configuration not stated)
EC50: > 11 µM (inactive)

Cc1cccn2c(=O)c3cc(S(=O)(=O)c4ccccc4)c(=N)n(Cc4cccnc4)c3nc12
EC50: > 11 µM (inactive)

COc1cccc(N=Nc2c(=O)[nH]n3c(=O)cc(C)[nH]c23)c1
EC50: > 11 µM (inactive)

COc1ccc(N2C(=O)NC(=O)/C(=C\c3cn(CC(=O)N4CCOCC4)c4ccccc34)C2=O)c(OC)c1
EC50: > 11 µM (inactive)

COc1cccc(/C=C2\SC(=S)N(CCCC(=O)NC3=NCCS3)C2=O)c1
EC50: > 11 µM (inactive)
